According to patent US9345774B2, “Topical composition comprising a film-forming polymer for delivering an active ingredient to skin” (LEO PHARMA A/S, priority 2012, dated 2016):

Assay: Chemical stability of calcipotriol in contact with container inner coating
Format: physicochemical

chemical stability of calcipotriol (epoxyphenol resin inner lacquer): unacceptable chemical degradation | chemical stability of calcipotriol (polyimide-polyamide resin as inner coating): satisfactory
Structure (SMILES): C=C1/C(=C\C=C2/CCC[C@]3(C)[C@@H]([C@H](C)/C=C/[C@@H](O)C4CC4)CC[C@@H]23)C[C@@H](O)C[C@@H]1O [calcipotriol]
